Experiment: gradient 5% acetonitrile 3 min, to 50% in 2 min, to 85% in 15 min, held 3 min, 100 µL/min
Conditions: column: Zorbax Extend-C18 2.1 x 50 mm; eluents: water / acetonitrile, 0.1% formic acid
Procedure, shortened: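 Retention time was recorded from adduct peaks, which were picked computationally and each inspected manually. Pure standards ran in mixtures of ~100 molecules on HPLC coupled to a quadrupole time-of-flight mass spectrometer, in positive and negative ionization mode, through a Zorbax Extend-C18 column (2.1 × 50 mm, 1.8 μm) at 100 μL/min. Eluents were water and acetonitrile, each with 0.1% formic acid.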

RP-LC retention time	Compound
923 s	COc1ccccc1-c1nc(-c2ccc3nnn(C)c3c2)no1
932 s	CCCCC(=O)Nc1nc(-c2ccc3c(c2)N(CC)C(=O)CO3)cs1
737 s	CCn1nccc1C(=O)N1CCCN(C2=NS(=O)(=O)C(c3ccc(F)cc3)=C2C)CC1
609 s	O=C(Cn1nc2c(cc1=O)CCCC2)Nc1nc(-c2ccccn2)cs1
574 s	COc1cn(CC(=O)Nc2cccc(C)c2C)c(CN2CCCCCC2)cc1=O
673 s	CNC(=O)c1ccc(-c2nc3cc(NS(=O)(=O)c4ccc(Br)cc4)ccc3n2C)cc1
666 s	NC(=O)c1ccccc1NC(=O)CCCn1cnc(-c2ccc(F)cc2)cc1=O
765 s	CCn1ccc(NC(=O)c2ccc(C)cc2C)n1
1020 s	CSc1ccccc1NC(=O)c1cc2ncc(Br)cn2n1
961 s	COc1ccc(-c2nc(-c3cn(Cc4ccc(C)cc4)nn3)no2)cc1OC
822 s	CCOc1ccc2c(c1)SC(CC(=O)Nc1ccccc1[N+](=O)[O-])C(=O)N2 (configuration not stated)
697 s	CCOc1ccc(OCC)c(S(=O)(=O)Nc2ccc(-c3cn4ccc(C)nc4n3)cc2)c1
1200 s	Cc1ccc(-c2nc(CN(c3ccccc3)S(=O)(=O)c3cccs3)c(C)o2)cc1
1200 s	Cc1cccc(N2CCN(c3ccc4cc(S(=O)(=O)N5CCC(C)CC5)ccc4n3)CC2C)c1 (configuration not stated)
764 s	COc1ccc(NC(=O)N2CCN(c3ccc(=O)n(-c4ccc(C)c(C)c4)n3)CC2)cc1OC
610 s	O=C(NCc1ccccc1Br)c1cn2c(n1)CCCC2
1230 s	CC(C)CCNc1ccc(-c2nc(-c3ccc(F)cc3)no2)cn1
647 s	CCCN(C)CC1(O)CCC2(CCN(C(=O)c3ccc(Cl)s3)CC2)CC1
1080 s	CCCCN(C)S(=O)(=O)c1cc(-c2nc(C)cs2)n(CC(=O)N2CCCCC2)c1
1130 s	CCOCCCNC(=O)c1nc(Nc2ccccc2)c2ccccc2n1
718 s	CCOC(=O)c1cc(S(=O)(=O)N2CCCC2C(=O)Nc2ccc(NC(C)=O)cc2)cn1C (configuration not stated)
917 s	CCOC(=O)C1=NN(c2ccccc2)CC1C(=O)OC (configuration not stated)
755 s	CCCCNC(=O)c1c(OCC(C)C)cc(=O)n2c1CCCCC2

RP-LC retention time	Compound
835 s	Cc1ccc(-c2noc(-c3cc(N4CCN(C)CC4)nc4ccccc34)n2)cc1
767 s	CCN1CCCn2cc(S(=O)(=O)NCc3ccc(Cl)cc3)cc2C1=O
633 s	COc1ccc(-c2nc3ccccn3c2Nc2ccc3c(c2)OCO3)cc1
635 s	CC(C)NC(=O)c1ccccc1OCC1CCCN(C2CCCC2)C1 (configuration not stated)
661 s	COc1ccc(N2CCN(C(=O)C3CCCN(c4nnc5cccc(C)n45)C3)CC2)cc1 (configuration not stated)
888 s	COc1ccc(N2CC(c3nc(-c4ccc(C)cc4)no3)CC2=O)c(OC)c1 (configuration not stated)
668 s	CN1C(=O)C(CC(=O)NC2CCCC2)Sc2ncccc21 (configuration not stated)
884 s	COc1ccccc1NC(=O)N1CCC2(CC1)N=C(c1ccc(Cl)cc1)C(=O)N2
745 s	CN(C)C(=O)c1cc(N(C)C)nc2c(Cl)cccc12
596 s	O=C(NCc1cccnc1)c1nnc(-c2ccc(S(=O)(=O)N3CCOCC3)cc2)o1
781 s	CC(C)CNC(=O)C1CC(=O)N(CCc2c[nH]c3ccc(Cl)cc23)C1 (configuration not stated)
747 s	CCc1nc2cc(N3CCCC(C(=O)NC(C)C)C3)cnc2nc1CC (configuration not stated)
678 s	CC(C)NC(=O)C1CCCN(c2nc3ncn(CC(=O)Nc4ccc5c(c4)OCO5)c(=O)c3s2)C1 (configuration not stated)
1110 s	O=[N+]([O-])c1ccc(-c2csc(Nc3ccc4c(c3)OCO4)n2)cc1
925 s	CCCN1C(=O)COc2ccc(-c3noc(-c4cccc(NC(C)=O)c4)n3)cc21
1020 s	O=S(=O)(c1ccccc1F)N1CCC(c2noc(-c3ccccc3)n2)CC1
640 s	O=C(NC1CCN(Cc2ccccc2)CC1)c1cc2n(n1)CCCN(Cc1ccccc1)C2=O
753 s	COCc1nc2cccnc2n1C1CCN(C(=O)Nc2ccc(Br)c(C)c2)CC1
696 s	CCN1CCn2cc(S(=O)(=O)Nc3ccc(F)cc3)cc2C1=O
582 s	CCNC(=O)c1cc(C)nc2ccc(CC)cc12
625 s	c1ccc(N2CCN(Cc3nc(-c4ccc(N5CCSCC5)nc4)no3)CC2)nc1
700 s	O=S(=O)(Nc1cccc(Cl)c1)c1ccc2nncn2c1
641 s	CCCCNC(=O)C1CCCN(c2cc(=O)n(C)c(=O)n2C)C1 (configuration not stated)

RP-LC retention time	Compound
971 s	O=S(=O)(c1ccc(-c2nnc(C3CC3)o2)o1)N1CCN(c2ccccc2)CC1
662 s	O=C1CSc2ccc(S(=O)(=O)N3CCC(C(=O)NC4CC4)CC3)cc2N1
1020 s	O=C(O)c1ccc2c(c1Nc1ccccc1)C(=O)c1ccccc1C2=O
708 s	CCc1ccc(C(=O)N2CCN(c3nc(CN4CCCCCC4)cs3)CC2)cc1
771 s	COC(=O)c1ccc(NC(=O)N(C)c2ccccc2)cc1
628 s	CCC(=O)N1CCc2cc(-c3ccc(C(=O)NCCCN4CCOCC4)cc3)ccc21
687 s	O=C(Nc1ccc2nc3n(c(=O)c2c1)CCCCC3)C(=O)NC1CC1
818 s	Cc1noc2nc(CCC(=O)Nc3ccc(Cl)cc3F)nc(N3CCOCC3)c12
1170 s	CCOC(=O)c1c(NC(=O)c2ccc(S(=O)(=O)N(C)C)cc2)sc(C)c1C
672 s	Cc1cc(C)c2c(CN3CCN(c4ccccn4)CC3)cc(=O)oc2c1
819 s	COc1ccc(C(=O)N2CCC3(CC2)N=C(c2ccc(Cl)cc2)NO3)cc1F
897 s	CCc1noc(NC(C)=O)c1-c1ccc(C)c(S(=O)(=O)Nc2ccc(C)c(C)c2)c1
737 s	Cc1oc(-c2[nH]ncc2C(=O)N2CCCC2)cc1S(=O)(=O)NCc1ccc(Cl)cc1
657 s	CC1Cc2cc(-c3cc(CC(=O)Nc4nc5ccccc5[nH]4)no3)ccc2O1 (configuration not stated)
1110 s	Cc1sc(-c2cc(C(F)(F)F)[nH]n2)cc1S(=O)(=O)N1CCN(c2ccc(F)cc2)CC1
1070 s	O=c1ccn(-c2cccc(F)c2)nc1-c1nc(-c2ccc(OCc3ccccc3)cc2)no1
799 s	CC(=O)Nc1ccc(-c2nc3ccccc3s2)cc1
1380 s	COc1ccc(-c2nc3n(n2)C2(CCCCC2)[C@@H]2CCCC[C@@H]2N3C(=O)c2ccco2)cc1
664 s	Cc1ccc(CN2CCN(CC(=O)Nc3ccc(C)cn3)C(=O)C2=O)cc1
665 s	CCCCNC(=O)Cc1c(C)n(C)c2nc(-c3ccccc3)nn2c1=O
1420 s	COc1ccc(-c2ccnn2-c2ccc(SCc3ccc(C)cc3)nn2)cc1
